Experimental data as given in patent US10704064B2, “Recombinant yeast producing 3-hydroxypropionic acid and method for producing 3-hydroxypropionic acid using the same” (SK Innovation Co., Ltd., priority 2014, dated 2020).

Assays:
ACC1 = assay: ACC radioactive enzyme assay (14C carbonate) from yeast cell lysates; type: biochemical, S. cerevisiae; conditions: strains of Table 13, FIG. 2
Excerpt: The most commonly used in vitro ACC assay is based on the usage of radioactive ^14C carbonate. The incorporation of radioactive carbonate into an acid and a non-volatile material (i.e. malonyl-CoA) is followed. The ^14C-labelled sodium bicarbonate which has not been converted to malonyl-CoA is removed by an acid and heat treatment which converts the remaining NaH14CO3 and the possible side products of the reaction into ^14C-labelled CO2.
This assay described by Diacovich et al. (2002, J. Biol. Chem. 277:31228-31236) has been used to detect ACC activity from yeast lysates (Shi et al. 2014, mBIO 5:3 e01130-14) with slight modifications. The cell lysates were prepared from yeast cells harvested during late exponential or stationary phase. The cells were washed and then resuspended in lysis buffer containing 100 mM potassium phosphate pH 7.5, 2 mM MgCl2, 1 mM dithiothreitol and 1×EDTA free Complete protease inhibitor (Roche). The cells were disrupted by glass beads and the supernatant was collected after centrifugation at 4° C. […]
The reaction was incubated at 30° C. for 15 min, and stopped by adding 50 μL of 5 M HCl. […] The ^14C content of the samples was determined using a liquid scintillation counter (PerkinElmer Tri-Carb 2810TR). […]
The radioactive ACC enzyme assay is very sensitive, even pmol/mg/min activities can be detected. […]

[1] = tested on: S. cerevisiae VSK-128 ACS2 deletion strain; assay: AADH in vivo growth assay, ACS2 deletion strain on glucose-based agar plates; type: cell-based
Excerpt: All copies of the ACS2 gene were deleted from the industrial S. cerevisiae VSK-128 strain in order to generate a strain with a defective PDH-bypass that was incapable of growth on glucose-based medium. Expression vectors carrying the 25 different AADH variants were then transformed into this ACS2 deletion strain to evaluate their ability to recover the growth of this strain on glucose.
There was a good correlation between the in vitro AADH enzyme activity assays and the in vivo growth recovery analyses.

AADH = AADH in vitro enzyme activity assay from yeast cell lysates; type: biochemical; conditions: in vitro, expressed in yeast
Method: AADH activity was measured as described by Kozak et al. (2014, Metab. Eng. 21:46-59) by monitoring the reduction of NAD^+ at 340 nm at 30° C. The yeast cells for the cell lysates were collected, washed with water, and then resuspended into lysis buffer containing 100 mM Tris-HCl buffer (pH 7.5) and 1×EDTA free protease inhibitor cocktail (Roche). The cells were lysed with glass beads in a Precellys 24 homogenizer at 5500 rpm for 3×40 seconds and kept on ice between rounds. Lysates were centrifuged at 16 000 g for 20 min at 4° C. and supernatants were collected. The total protein concentration was determined using the Bradford method.
The enzyme assay reaction mixture contained 0.1 mM Coenzyme A, 50 mM CHES buffer (pH 9.5), 0.8 mM NAD^+, 0.2 mM DTT and 10 μL of cell extract in a total reaction volume of 200 μL. The reaction was started by adding 10 mM of freshly prepared acetaldehyde solution and reduction of NAD^+ was followed with a Thermo Konelab 20XT analyser.
Five AADH genes were originally chosen (i.e. ADHEpm, ADHEec, EUTec, EUTdz and LIN1129li) and transformed into the CEN.PK lab strain. These AADHs were expressed from a multicopy plasmid where they were under control of the TEF1 promoter.
Twenty additional novel AADH genes were chosen from the genome mining analyses to be evaluated for expression and enzyme activity in yeast.

## ACCyl: acetyl-CoA carboxylase of Yarrowia lipolytica CLIB122, GenBank XP_501721.1
ACC1
  relative ranking on ACC1 activity: most promising candidate

## ADHEec: adhE type AADH of Escherichia coli K-12 substr. MG1655, GenBank NP_415757.1
[1]
  recovery of the growth deficiency of the ACS2-deletion strain: capable of recovering the growth deficiency
AADH
  AADH activity: showed AADH activity
